# Measurements reported in PMC11274943, “Discovery of Benzisothiazolone Derivatives as Bifunctional Inhibitors of HIV-1 Reverse Transcriptase DNA Polymerase and Ribonuclease H Activities” (Biomolecules, 2024).
# How the values were obtained:
# Type in all cases: biochemical
# [1] = molecular target: T1, K103N HIV-1 RT RNase H activity (Human immunodeficiency virus type 1 group M subtype B, UniProt P04585, K690N); experiment: FRET-based RT RNase H cleavage assay, K103N RT
# T1 construct: made in house
# Method: (§1) WT (wild-type) RT, and RTs harboring the NNRTI-resistant mutations K101E, K103N, Y181C, Y188C, G190A and P236L, were overexpressed and purified to homogeneity as described previously. The RT concentration was determined spectrophotometrically at 280 nm using an absorbance coefficient of 260,450 M^−1·cm^−1. The 7-hydroxy tropolone derivative 19,616 (2,7-dihydroxy 2,4,6-cyclo-heptatrien-1-one) was purchased from Molecular Diversity Preservation International (Basel, Switzerland). Nevirapine was purchased from Selleckchem (Houston, TX, USA). The benzisothiazolone derivatives were procured from MolPort (New York, NY, USA) or Enamine (Kyiv, Ukraine). The DNA and RNA oligonucleotides were synthesized and purified by Integrated DNA Technologies (Coralville, IA, USA). All other reagents were of the highest quality available and were used without further purification.
# (§2) The following RNA/DNA T/P substrate was used in the present study: an 18-nucleotide RNA template (RNA-18T: 5′-[…]-3′) was annealed to an 18-nucleotide primer (DNA-18T: 5′-[…]-3′), as described previously. Fluorescein and IowaBlack FQTM were covalently attached to the 3′- and 5′-ter-mini of the RNA and DNA oligonucleotides, respectively.
# (§3) The FRET-based RNase H cleavage assays were carried out as described previously. Fluorescence was measured with a SpectraMax M2 microplate spectrofluorometer (Molecular Devices, San Jose, CA, USA) using an excitation wavelength of 490 nm and an emission wavelength of 528 nm. Data were analyzed using SoftMax Pro software, version 4.7.1 (Molecular Devices, San Jose, CA, USA).
# [2] = molecular target: T2, Y188C HIV-1 RT RNase H activity (Human immunodeficiency virus type 1 group M subtype B, UniProt P04585, Y775C); experiment: FRET-based RT RNase H cleavage assay, Y188C RT
# T2 construct: made in house
# Method: as §1, §2, §3
# [3] = test system: Y188C HIV-1 RT RNase H activity; experiment: FRET-based RT RNase H cleavage assay, Y188C RT; conditions: Y188C RT; fold resistance IC50 mutant/IC50 WT
# Method: as §1, §2, §3
# [4] = molecular target: T3, G190A HIV-1 RT DNA-dependent DNA polymerase activity (Human immunodeficiency virus type 1 group M subtype B, UniProt P04585, G777A); experiment: biochemical
# T3 construct: made in house
# Method: as §1, with “Nevirapine was purchased from Selleckchem (Houston, TX, USA).” left out
# (§4) DDDP assays were also performed using a QuantiFluor ONE based spectrophotometric assay to detect double-stranded DNA synthesized by recombinant HIV-1 RT [14]. The reaction contained 40 nM of a template/primer comprising a 200 nt DNA template (5′-[…] […]-[…]-[…] […] […]-3′) annealed to an 18-nucleotide DNA primer (5′-[…]-3′), and a mix of 50 mM Tris-HCl pH 7.8, 50 mM NaCl, 10 mM MgCl2 and 50 µM dNTP. The reactions were stopped after 45 min by adding the detection reagent containing 1 × Quant-Fluor One (Promega) and 12.5 mM ethylenediaminetet-raacetic acid; the samples were transferred to a 96-well black plate, and fluorescence was measured at excitation/emission (490/535 nm).
# [5] = molecular target: T4, K101E HIV-1 RT DNA-dependent DNA polymerase activity (Human immunodeficiency virus type 1 group M subtype B, UniProt P04585, K688E); experiment: biochemical
# T4 construct: made in house
# Method: as §1, with “Nevirapine was purchased from Selleckchem (Houston, TX, USA).” left out
# as §4
# [6] = test system: K101E HIV-1 RT DNA-dependent DNA polymerase activity; experiment: biochemical; conditions: K101E RT; fold resistance IC50 mutant/IC50 WT
# Method: as §1, with “Nevirapine was purchased from Selleckchem (Houston, TX, USA).” left out
# as §4
# [7] = molecular target: T5, K103N HIV-1 RT DNA-dependent DNA polymerase activity (Human immunodeficiency virus type 1 group M subtype B, UniProt P04585, K690N); experiment: biochemical
# T5 construct: made in house
# Method: as §1, with “Nevirapine was purchased from Selleckchem (Houston, TX, USA).” left out
# as §4
# [8] = test system: K103N HIV-1 RT DNA-dependent DNA polymerase activity; experiment: biochemical; conditions: K103N RT; fold resistance IC50 mutant/IC50 WT
# Method: as §1, with “Nevirapine was purchased from Selleckchem (Houston, TX, USA).” left out
# as §4
# [9] = molecular target: T6, P236L HIV-1 RT DNA-dependent DNA polymerase activity (Human immunodeficiency virus type 1 group M subtype B, UniProt P04585, P823L); experiment: biochemical
# T6 construct: made in house
# Method: as §1, with “Nevirapine was purchased from Selleckchem (Houston, TX, USA).” left out
# as §4
# [10] = test system: P236L HIV-1 RT DNA-dependent DNA polymerase activity; experiment: biochemical; conditions: P236L RT; fold resistance IC50 mutant/IC50 WT
# Method: as §1, with “Nevirapine was purchased from Selleckchem (Houston, TX, USA).” left out
# as §4
# [11] = molecular target: T7, WT HIV-1 RT DNA-dependent DNA polymerase activity (Human immunodeficiency virus type 1 group M subtype B, UniProt P04585); experiment: biochemical
# T7 construct: made in house
# Method: as §1, with “Nevirapine was purchased from Selleckchem (Houston, TX, USA).” left out
# as §4
# [12] = molecular target: T8, Y181C HIV-1 RT DNA-dependent DNA polymerase activity (Human immunodeficiency virus type 1 group M subtype B, UniProt P04585, Y768C); experiment: biochemical
# T8 construct: made in house
# Method: as §1, with “Nevirapine was purchased from Selleckchem (Houston, TX, USA).” left out
# as §4
# [13] = test system: Y181C HIV-1 RT DNA-dependent DNA polymerase activity; experiment: biochemical; conditions: Y181C RT; fold resistance IC50 mutant/IC50 WT
# Method: as §1, with “Nevirapine was purchased from Selleckchem (Houston, TX, USA).” left out
# as §4
# [14] = molecular target: T9, Y188C HIV-1 RT DNA-dependent DNA polymerase activity (Human immunodeficiency virus type 1 group M subtype B, UniProt P04585, Y775C); experiment: biochemical
# T9 construct: made in house
# Method: as §1, with “Nevirapine was purchased from Selleckchem (Houston, TX, USA).” left out
# as §4
# [15] = test system: Y188C HIV-1 RT DNA-dependent DNA polymerase activity; experiment: biochemical; conditions: Y188C RT; fold resistance IC50 mutant/IC50 WT
# Method: as §1, with “Nevirapine was purchased from Selleckchem (Houston, TX, USA).” left out
# as §4
# [16] = test system: G190A HIV-1 RT DNA-dependent DNA polymerase activity; experiment: biochemical; conditions: G190A RT; fold resistance IC50 mutant/IC50 WT
# Method: as §1, with “Nevirapine was purchased from Selleckchem (Houston, TX, USA).” left out
# as §4
Structure (SMILES),IC50 [1] [µM],IC50 [2] [µM],Inhibition of RT RNase H Activity Fold-R [3],IC50 [4] [µM],IC50 [5] [µM],Inhibition of RT DNA polymerase activity Fold-R [6],IC50 [7] [µM],Inhibition of RT DNA polymerase activity Fold-R [8],IC50 [9] [µM],Inhibition of RT DNA polymerase activity Fold-R [10],IC50 [11] [µM],IC50 [12] [µM],Inhibition of RT DNA polymerase activity Fold-R [13],IC50 [14] [µM],Inhibition of RT DNA polymerase activity Fold-R [15],Inhibition of RT DNA polymerase activity Fold-R [16]
"Cc1ccc(-n2sc3ccccc3c2=O)cc1S(=O)(=O)N1CCCCC1 [Compound 1, 2-(4-methyl-3-(piperidin-1-ylsulfonyl)phenyl)benzo[d]isothiazol-3(2H)-one]",0.34 ± 0.04,0.32 ± 0.01,2.0,1.6 ± 0.88,7.33 ± 7.05,1.2,3.66 ± 1.84,0.6,2.22 ± 0.18,0.4,5.97 ± 3.1,0.61 ± 0.06,0.1,0.14 ± 0.01,0.02,
"CCOC(=O)Cc1csc(-n2sc3ccccc3c2=O)n1 [Compound 2, ethyl 2-(2-(3-oxobenzo[d]isothiazol-2(3H)-yl)thiazol-4-yl)acetate]",0.24 ± 0.12,0.59 ± 0.04,4.5,1.93 ± 0.49,4.88 ± 1.56,1.8,3.28 ± 1.53,1.2,5.13 ± 1.68,1.9,2.64 ± 1.85,0.71 ± 0.1,0.3,0.53 ± 0.08,0.2,0.7
"CCN(CC)S(=O)(=O)c1cccc(-n2sc3ccccc3c2=O)c1 [Compound 4, N,N-diethyl-3-(3-oxobenzo[d]isothiazol-2(3H)-yl)benzenesulfonamide]",0.83 ± 0.23,1.1 ± 0.32,4.2,1.7 ± 1,1.8 ± 0.7,1.6,2.1 ± 0.7,1.9,1.6 ± 0.9,1.5,1.1 ± 0.3,0.5 ± 0.2,0.45,0.3 ± 0.1,0.3,1.5
